Legend:
viable cells [1] = experiment: Viable cell counts at measuring points, industrial water treatment (FIG. 1 embodiment)
Method: The water that had been subjected to the coagulation-filtration treatment was passed through an activated carbon column at an SV of 20 hr^−1. Then the water was passed through an RO membrane separator (with an aromatic-polyamide ultra-low-pressure RO membrane “ES-20”, manufactured by Nitto Denko Corporation) at a permeate flow of 60 L/hr and a recovery rate of 80%.
In Example 1 and Comparative Example 1, viable cell counts were measured at several points.
In Examples 2 to 5, concentrations of combined chlorine in activated carbon feed water (water fed into the activated carbon column) and activated carbon-treated water (water from the activated carbon column) were measured, and viable cell counts in the activated carbon-treated water were measured.
In Examples 6 to 9, concentrations of combined chlorine and viable cell counts in the activated carbon-treated water were measured.

viable cells [2] = experiment: Viable cell counts at measuring points, nonionic surfactant-containing wastewater treatment (FIG. 2 embodiment)
Method: […] Next, an EDTA-based scale inhibitor (Welclean A801, manufactured by Kurita Water Industries Ltd.) was added in an amount of 10 mg/L (five times the weight of the concentration of calcium ions in softening column-treated water). NaOH was added to adjust the pH to 10.5. Then the water was passed through an RO membrane separator (with an aromatic-polyamide ultra-low-pressure RO membrane “ES-20”, manufactured by Nitto Denko Corporation) at a permeate flow of 60 L/hr and a recovery rate of 80% to perform RO membrane separation treatment.
In Example 10 and Comparative Example 2, viable cell counts were measured at several points.
In Examples 11 to 14, viable cell counts in the activated carbon-treated water and the softened water were measured.
In Examples 15 to 18, viable cell counts in the activated carbon-treated water and the softening column-treated water were measured.

[3] = Daily change in flux through the RO membrane separator
Method: The water that had been subjected to the coagulation-filtration treatment was passed through a fixed-bed activated carbon column at an SV of 20 hr^−1 and then a softening column at an SV of 15 hr^−1. Next, an EDTA-based scale inhibitor (Welclean A801, manufactured by Kurita Water Industries Ltd.) was added in an amount of 10 mg/L (five times the weight of the concentration of calcium ions in softening column-treated water). […] Then the water was passed through an RO membrane separator (with an aromatic-polyamide ultra-low-pressure RO membrane “ES-20”, manufactured by Nitto Denko Corporation) at a permeate flow of 60 L/hr and a recovery rate of 80% to perform RO membrane separation treatment.
Treatment was performed under the same conditions as those in Example 10, except that the pH of the softening column-treated water was adjusted in such a manner that the pH of the RO feed water was 6 (Reference Example 1) or 8.5 (Reference Example 2).
In Example 10, Comparative Example 2, and Reference Examples 1 and 2, daily changes in flux through the RO membrane separator were measured.

[4] = Example 11, chloramine T added 0.5 mg-Cl2/L (combined chlorine), SV 20 hr^-1, wastewater
[5] = Example 12, chloramine T added 0.8 mg-Cl2/L (combined chlorine), SV 20 hr^-1, wastewater
[6] = Example 15, SV through activated carbon column 10 hr^-1, combined chlorine 1 mg-Cl2/L, wastewater
[7] = Example 16, SV through activated carbon column 15 hr^-1, combined chlorine 1 mg-Cl2/L, wastewater
[8] = day 1, Example 10 (chloramine T 5 mg-Cl2/L) / Comparative Example 2 (NaClO 0.5 mg-Cl2/L), RO feed water pH 9.5
[9] = day 7, Example 10 (chloramine T 5 mg-Cl2/L) / Comparative Example 2 (NaClO 0.5 mg-Cl2/L), RO feed water pH 9.5
[10] = Example 1 (chloramine T, combined chlorine 5 mg-Cl2/L) / Comparative Example 1 (NaClO, free chlorine 0.5 mg-Cl2/L), SV 20 hr^-1
[11] = Example 10 (chloramine T, combined chlorine 5 mg-Cl2/L) / Comparative Example 2 (NaClO, free chlorine 0.5 mg-Cl2/L), wastewater TOC 20 mg/L, SV 20 hr^-1

## Cc1ccc(S(=O)(=O)[N-]Cl)cc1.[Na+] [Chloramine T, sodium N-chloro-p-toluenesulfonamide trihydrate]
Viable cells [1]; Example 1, combined chlorine 5 mg-Cl2/L, SV 20 hr^-1
  Viable cells at all measuring points: no viable cells were detected
Viable cells [1]; Example 2, combined chlorine in activated carbon feed water 0.5 mg/L, SV 20 hr^-1
  Viable cell count in activated carbon-treated water: 4 × 10^3 cells/ml
Viable cells [1]; Example 3, combined chlorine in activated carbon feed water 0.8 mg/L, SV 20 hr^-1
  Viable cell count in activated carbon-treated water: 5 × 10^3 cells/ml
Viable cells [1]; Example 6, SV through activated carbon column 10 hr^-1, combined chlorine 1 mg-Cl2/L
  Viable cell count in activated carbon-treated water: 9 × 10^3 cells/mil
Viable cells [1]; Example 7, SV through activated carbon column 15 hr^-1, combined chlorine 1 mg-Cl2/L
  Viable cell count in activated carbon-treated water: 2 × 10^3 cells/mil
Viable cells [2]; Example 10, combined chlorine 5 mg-Cl2/L, wastewater, SV 20 hr^-1
  Viable cells at all measuring points: no viable cells were detected
Viable cells [2]; [4]
  Viable cell count, activated carbon-treated water: 3 × 10^4 cells/ml
  Viable cell count, softened water: 4 × 10^5 cells/ml
Viable cells [2]; [5]
  Viable cell count, activated carbon-treated water: 6 × 10^3 cells/ml
  Viable cell count, softened water: 8 × 10^4 cells/ml
Viable cells [2]; [6]
  Viable cell count, activated carbon-treated water: 9 × 10^4 cells/ml
  Viable cell count, softened water: 2 × 10^6 cells/ml
Viable cells [2]; [7]
  Viable cell count, activated carbon-treated water: 2 × 10^5 cells/ml
  Viable cell count, softened water: 7 × 10^6 cells/ml
[3]; Example 10, chloramine T 5 mg-Cl2/L, RO feed water pH 9.5
  Reduction in flux through the RO membrane separator: no reduction in flux
[3]; [8]
  Flux: 1.0 m^3/m^2 · day
[3]; day 1, Reference Example 1, chloramine T 5 mg-Cl2/L, RO feed water pH 6
  Flux: 0.98 m^3/m^2 · day
[3]; day 1, Reference Example 2, chloramine T 5 mg-Cl2/L, RO feed water pH 8.5
  Flux: 0.99 m^3/m^2 · day
[3]; [9]
  Flux: 0.95 m^3/m^2 · day
[3]; day 7, Reference Example 1, chloramine T 5 mg-Cl2/L, RO feed water pH 6
  Flux: 0.98 m^3/m^2 · day
[3]; day 7, Reference Example 2, chloramine T 5 mg-Cl2/L, RO feed water pH 8.5
  Flux: 0.97 m^3/m^2 · day
[3]; day 30, Example 10 (chloramine T 5 mg-Cl2/L) / Comparative Example 2 (NaClO 0.5 mg-Cl2/L), RO feed water pH 9.5
  Flux: 0.95 m^3/m^2 · day
[3]; day 30, Reference Example 1, chloramine T 5 mg-Cl2/L, RO feed water pH 6
  Flux: 0.97 m^3/m^2 · day
[3]; day 30, Reference Example 2, chloramine T 5 mg-Cl2/L, RO feed water pH 8.5
  Flux: 0.97 m^3/m^2 · day
[3]; day 60, Example 10 (chloramine T 5 mg-Cl2/L), RO feed water pH 9.5
  Flux: 0.93 m^3/m^2 · day
[3]; day 90, Example 10 (chloramine T 5 mg-Cl2/L), RO feed water pH 9.5
  Flux: 0.93 m^3/m^2 · day

## OCl [NaClO, sodium hypochlorite, reference compound]
Viable cells [1]; Comparative Example 1, free chlorine 0.5 mg-Cl2/L, SV 20 hr^-1
  Viable cells detected in the activated carbon-treated water: 10^3 viable cells per milliliter
Viable cells [1]; [10]
  Viable cell count, RO feed water: 4 × 10^3 cells/ml
  Viable cell count, RO-concentrated water: 2 × 10^5 cells/ml
  Viable cell count, activated carbon-treated water: 5 × 10^3 cells/ml
Viable cells [2]; Comparative Example 2, free chlorine 0.5 mg-Cl2/L, wastewater
  Viable cells detected in the activated carbon-treated water: 10^5 viable cells per milliliter
Viable cells [2]; Comparative Example 2, free chlorine 0.5 mg-Cl2/L, wastewater, sampled before the addition of the alkali
  Viable cells detected in the softening column-treated water: 10^6 viable cells per milliliter
Viable cells [2]; [11]
  Viable cell count, activated carbon-treated water: 10^5 cells/ml
  Viable cell count, softened water: 10^6 cells/ml
[3]; [8]
  Flux: 0.98 m^3/m^2 · day
[3]; [9]
  Flux: 0.96 m^3/m^2 · day

Source: US20100206809A1, “METHOD AND APPARATUS FOR TREATING ORGANIC MATTER-CONTAINING WATER” (KURITA WATER INDUSTRIES LTD., priority 2007, published 2010)
